Test results as given in US20230093594A1, “PANTETHENOYLCYSTEINE DERIVATIVES AND USES THEREOF” (Comet Therapeutics, Inc., priority 2019, published 2023).

Legend:
[1] = test system: MMA Patient fibroblasts (TSI 3739); assay: Mitochondrial morphology imaging in MMA patient fibroblasts (TSI 3739); assay type: cell-based; details: image compared with fragmented mitochondria in vehicle control
[2] = test system: MMA Patient fibroblasts (GM00371); assay: Mitochondrial morphology imaging in MMA patient fibroblasts (GM00371); assay type: cell-based; details: image compared with fragmented mitochondria in vehicle control
[3] = test system: Venular Endothelial cells (HUVEC) (3C system); assay: BioMAP 3C system (IL-1β, TNFα, IFNγ, 24h); assay type: cell-based, human; details: procedure of Example 41 (3C), 10 μM
Description: (§1) The BioMAP platform is an in vitro phenotypic profiling technology that screened the compounds of the present disclosure (hereafter indicated as test agents) in human primary cell-based systems modelling complex tissue and disease states. The BioMAP assays were performed using the Eurofin's BioMAP Technology Platform as referenced in below articles to model different diseases on primary cell-based model systems. These systems consisted of either single primary cell types or co-culture cells. Adherent cell types were cultured or co-cultured in 96 or 384-well plates until confluence followed by the addition of compounds prepared in DMSO at a final concentration of <0.1%. […]
Following the general procedure as described in Example 40, Venular Endothelial cells (HUVEC) (3C system) were treated with IL-1β, TNFα, IFNγ for 24h to model Th1 driven cardiovascular and chronic inflammation diseases in the presence or absence of the compounds. Biomarker read out were; Tissue Factor, ICAM-1, E-selectin, uPAR (CD87), IL-8, MIG, HLA-DR, proliferation and SRB (Sulfo-rhodamine i.e., staining for protein content).

[4] = test system: Venular Endothelial cells (HUVEC) (4H system); assay: BioMAP 4H system (IL-4 and histamine, 24h); assay type: cell-based, human; details: procedure of Example 42, 10 μM
Description: (§2) The BioMAP platform is an in vitro phenotypic profiling technology that screened the compounds of the present disclosure (hereafter indicated as test agents) in human primary cell-based systems modelling complex tissue and disease states. The BioMAP assays were performed using the Eurofin's BioMAP Technology Platform as referenced in below articles to model different diseases on primary cell-based model systems. These systems consisted of either single primary cell types or co-culture cells. Adherent cell types were cultured or co-cultured in 96 or 384-well plates until confluence followed by the addition of compounds prepared in DMSO at a final concentration of <0.1%. In each cell-based system, primary cells from heathy donors (2-6 donors) were pooled and treated with compounds at 1 and 10 μM dose 1h prior to stimulation and remain in culture as indicated in Example 41, Example 42, Example 43, Example 44, Example 45, Example 46, Example 47, Example 48, Example 49, Example 50, Example 51, Example 52.
Following the general procedure as described in Example 40, Venular Endothelial cells (HUVEC) (4H system) were treated with IL-4 and histamine for 24h to model Th2 driven allergy and autoimmunity in the presence or absence of compounds. […]

[5] = test system: Peripheral blood mononuclear cells co-cultured with venular endothelial cells (HUVEC) (LPS system); assay: BioMAP LPS system (LPS, 24h); assay type: cell-based, human; details: procedure of Example 43 (LPS)
Description: as §2
Following the general procedure as described in Example 40, Peripheral blood mononuclear cells co-cultured with venular endothelial cells (HUVEC) (LPS system) were stimulated with LPS for 24h in the presence or absence of compounds, to model cardiovascular disease and chronic inflammation. Biomarkers read out were; MCP-1, VCAM-1, Thrombomodulin, Tissue Factor, CD40, E-selectin, CD69, IL-8, IL-1α, M-CSF, sPGE2, SRB and TNFα.

[6] = test system: Peripheral blood mononuclear cells co-cultured with venular endothelial cells (Sag system); assay: BioMAP SAg system (T-cell ligands); assay type: cell-based, human; details: procedure of Example 44 (SAg), 10 μM
Description: as §1
Following the general procedure as described in Example 40, Peripheral blood mononuclear cells were co-cultured with venular endothelial cells and treated with […] (T-cell ligands) (Sag system) in the presence or absence of compounds to model autoimmune and chronic inflammation Biomarkers read out were; MCP-1, CD38, CD40, E-selectin, CD69, IL-8, MIG, PBMC cytotoxicity, Proliferation and SRB.

[7] = test system: Peripheral blood mononuclear cells co-cultured with B-cells (BT system); assay: BioMAP BT system (a-IgM and TCR ligands, 72h); assay type: cell-based, human; details: procedure of Example 45 (BT)
Description: as §2
Following the general procedure as described in Example 40, Peripheral blood mononuclear cells were co-cultured with B-cells (BT system) were treated with either a-IgM and TCR ligands for 72h in the presence or absence of the compounds to model asthma, allergy, oncology and autoimmunity. Biomarkers read out were; B-cell proliferation, PBMC cytotoxicity, secreted IgG, sIL-17A, sIL-17F, siL-2, sIL-6 and s-TNFα.

[8] = test system: Bronchial epithelial cells co-cultured with dermal fibroblast (BF4T system); assay: BioMAP BF4T system (TNFα and IL-4, 24h); assay type: cell-based, human; details: procedure of Example 46 (BF4T), 10 μM
Description: as §2
Following the general procedure as described in Example 40, Bronchial epithelial cells were co-cultured with dermal fibroblast (BF4T system) and were treated with TNFα. and IL-4 for 24h in the presence or absence of the compounds to model asthma, allergy, fibrosis, lung inflammation. Biomarkers read out were; MCP-1, Eotaxin-3, VCAM-1, ICAM-1, CD90, IL-8, IL-la, keratin 8/18, MMP-1, MMP-3, MMP-9, PAI-1, SRB, tPA, uPA.

[9] = test system: Bronchial epithelial cells (BE3C system); assay: BioMAP BE3C system (IL-1β, TNFα, IFNγ, 24h); assay type: cell-based, human; details: procedure of Example 47 (BE3C), 10 μM
Description: as §1
Following the general procedure as described in Example 40, Bronchial epithelial cells (BE3C system) were treated with IL-1β, TNFα and IFNγ for 24h in the presence or absence of the compounds to model lung inflammation and chronic obstructive pulmonary disease (COPD). Biomarkers read out were; ICAM-1, uPAR, IP-10, I-TA C, IL-A, MIG, EGFR, HLA-DR, IL-1α, Keratin 8/18, MMP-1, MMP-9, PAI-1, SRB, tPA, uPA.

[10] = test system: Dermal fibroblasts (HDF3CGF system); assay: BioMAP HDF3CGF system (IL-1β, TNFα, IFNγ, EGF, bFGF, PDGF-BB, 24h); assay type: cell-based, human; details: procedure of Example 49 (HDF3CGF), 10 μM
Description: as §2
Following the general procedure as described in Example 40, Dermal fibroblasts (HDF3CGF system) were treated with IL-1β, TNFα and IFNγ, EGF, bFGF and PDGF-BB for 24h in the presence or absence of the compounds to model fibrosis and chronic inflammation. Biomarkers read out were; MCP-1, VCAM-1, ICAM-1, Collagen-I, Collagen-III, IP-10, I-TAC, IL-8, MIG, EGFR, M-CSF, MMP-1, PAI-1, SRB, TIMP-1, TIMP-2 and proliferation was measured for 72h.

[11] = test system: Keratinocytes co-cultured with dermal fibroblast (KF3CT system); assay: BioMAP KF3CT system (IL-1β, TNFα, IFNγ, TGFβ, 24h); assay type: cell-based, human; details: procedure of Example 50 (KF3CT), 1 μM
Description: as §2
Following the general procedure as described in Example 40, Keratinocytes were co-cultured with dermal fibroblast (KF3CT system) and treated with IL-1β, TNFα, IFNγ and TGFβ for 24h in the presence or absence of the compounds to model psoriasis, dermatitis and skin biology. Biomarkers read out were; MCP-1, ICAM-1, IP-10, IL-8, MIG, IL-1α, MMP-9, PAI, SRB, TIMP-2, uPA.

[12] = test system: Venular endothelial cells co-cultured with macrophages (Mphg system); assay: BioMAP Mphg system (TLR2 ligand, 24h); assay type: cell-based, human
Description: as §2
Following the general procedure as described in Example 40, Venular endothelial cells co-cultured with macrophages (Mphg system) and treated with TLR2 ligand for 24h in the presence or absence of the compounds to mimic cardiovascular inflammation, restenosis and chronic inflammation. Biomarkers read out were; MCP-1, MIP-1α, VCAM-1, CD40, E-selectin, CD69, IL-8, IL-1α, M-CSF, sIL-10 and SRB.

[13] = test system: human primary cell-based systems; assay: BioMAP assay, general procedure of Example 40 (system not stated)
Description: as §2

[14] = procedure of Example 52 (Mphg), 10 μM

COC(=O)CCC(=O)SC[C@H](NC(=O)CCNC(=O)[C@H](O)C(C)(C)CO)C(=O)OC [Compound 8, methyl 4-[[(2R)-2-[3-[(2R)-2,4-dihydroxy-3,3-dimethylbutanamido]propanamido]-3-methoxy-3-oxopropyl]sulfanyl]-4-oxobutanoate] was tested, and the “mitochondrial morphology (elongation and networking of mitochondria)” value [1] was “elongation and networking of mitochondria promoted”, the “mitochondrial morphology (elongation and networking of mitochondria)” value [2] was “elongation and networking of mitochondria promoted” and the “% decrease in IL-8” value [3] was no less than 10%. For the same molecule, the “% decrease in E-Selectin” value [4] was no less than 20%, the “% decrease in IL-1α” value ([5]; 1 μM) was no less than 20% and the “% decrease in IL-8” value ([5]; 10 μM) was no less than 20%. For the same molecule, the “% decrease in M-CSF” value ([5]; 10 μM) was no less than 10%, the “% decrease in TissueFactor” value ([5]; 10 μM) was no less than 10% and the “% increase in sTNFα” value ([5]; 10 μM) was no less than 10%. The “% increase in CD69” value [6] was no less than 10%, the “% decrease in sTNFα” value ([7]; 1 μM) was no less than 10% and the “% decrease in sIL-17” value ([7]; 10 μM) was no less than 20%. The “% increase in sIL-2” value ([7]; 10 μM) was no less than 20%, the “% decrease in IL-1α” value [8] was no less than 10% and the “% decrease in MMP-9” value [8] was no less than 10%. The “% increase in VCAM-1” value [8] was no less than 10%, the “% decrease in uPA” value [9] was no less than 10% and the “% increase in PAI-I” value [9] was no less than 10%. The “% decrease in TIMP-1” value [10] was no less than 10%, the “% decrease in TIMP-2” value [10] was no less than 10% and the “% increase in Collagen III” value [10] was no less than 20%. The “% decrease in MMP-9” value [11] was no less than 10%, the “% decrease in CD69” value ([12]; procedure of Example 52 (Mphg), 1 μM) was no less than 20% and the “% decrease in E-Selectin” value [12, 14] was no less than 10%. For the same molecule, the “% decrease in IL-8” value [12, 14] was no less than 20%, the “% decrease in α-SMA” value ([12]; procedure of Example 52, 1 μM) was no less than 10% and the “% increase in MMP-1” value ([12]; procedure of Example 52, 1 μM) was no less than 10%. The “% decrease in Serum Amyloid A” value ([13]; procedure of Example 40, 1 μM) was no less than 10%, the “% decrease in VCAM-1” value ([13]; procedure of Example 40, 1 μM) was no less than 10% and the “% increase in Collagen I” value ([13]; procedure of Example 40, 1 μM) was no less than 10%. The “% decrease in Proliferation” value ([13]; procedure of Example 40, 10 μM) was no less than 10%, the “% decrease in Thrombomodulin” value ([13]; procedure of Example 40, 10 μM) was no less than 20% and the “% increase in HLA-DR” value ([13]; procedure of Example 40, 10 μM) was no less than 10%. The “% increase in IL-6” value ([13]; procedure of Example 40, 10 μM) was no less than 10%.
